Measured values as given in patent US12458621B1, “Application of genipin beta-methyl derivative gen-17 in preparation of drug for prevention and treatment of acute severe pneumonia” (KUNMING MEDICAL UNIVERSITY, priority 2024, dated 2025).

How the values were obtained:
Format in all cases: in vivo, Kunming mice
Keap1 [1] = assay: Keap1 gene expression in lung tissue by qRT-PCR
Experimental: (§1) A total of 144 SPF-grade healthy Kunming mice, aged 5-7 weeks and weighing 18-22 g, are weighed and randomly allocated into six experimental groups: control group (NS), model group (LPS), dexamethasone group (DEX, […] per kilogram abbreviated as mg/kg), genipin beta-methyl derivative low-dose group (12.5 mg/kg), genipin beta-methyl derivative medium-dose group (25 mg/kg), and genipin beta-methyl derivative high-dose group (50 mg/kg), 24 animals per group, in which 12 animals are used to take lung tissue for the detection of other indicators, and another 12 animals are used to collect BALF. […]
(§2) Samples are collected 24 hours after the animal model is established. […] Lung tissues are collected and the whole lung wet weight is measured. […] After tidying, the lungs are photographed, excess tissues such as the trachea are cleared away, and the wet weight of the whole lung is measured to calculate the lung index. • (3) The upper lobe of the left lung is fixed in 4% neutral paraformaldehyde, fixed for 24 hours, paraffin-embedded and sectioned for HE staining. • (4) The remaining lung tissues are put into centrifugal tubes separately, quickly frozen in liquid nitrogen, and then stored at −80° C. after the experiment, which is used for the detection of MDA, SOD, western blotting (WB) and reverse transcription polymerase chain reaction (RT-PCR). […]

IL-1β [2] = assay: IL-1β mRNA in lung tissue by qRT-PCR; settings: Gen-17 (12.5, 25, 50 mg/kg gavage) compared with LPS group (P<0.001)
Experimental: as §1, §2

iNOS = iNOS mRNA in lung tissue by qRT-PCR; settings: Gen-17 (12.5, 25, 50 mg/kg gavage) compared with LPS group (P<0.001)
Experimental: as §1, §2

IL-1β [3] = assay: IL-1β content in BALF by ELISA
Experimental: A total of 144 SPF-grade healthy Kunming mice, aged 5-7 weeks and weighing 18-22 g, are weighed and randomly allocated into six experimental groups: control group (NS), model group (LPS), dexamethasone group (DEX, […] per kilogram abbreviated as mg/kg), genipin beta-methyl derivative low-dose group (12.5 mg/kg), genipin beta-methyl derivative medium-dose group (25 mg/kg), and genipin beta-methyl derivative high-dose group (50 mg/kg), 24 animals per group, in which 12 animals are used to take lung tissue for the detection of other indicators, and another 12 animals are used to collect BALF.
All mice are gavaged with a same volume of 0.9% normal saline once a day in the NS group and the LPS group, DEX solution (0.39 mg/kg) is gavaged once a day in the DEX group, low-dose Gen-17 solution (12.5 mg/kg) is gavaged once a day in the medium-dose Gen-17 group, medium-dose Gen-17 solution (25 mg/kg) is gavaged once a day in the high-dose Gen-17 group, and high-dose Gen-17 solution (50 mg/kg) is gavaged once a day in the high-dose Gen-17 group. The dosage is converted according to the weight of the mice, and the gavage volume is 20 milliliters per kilogram (mL/kg), and the gavage is continued for 3 days. One hour after the gavage on the third day, the ALI model is established by tracheal instillation of LPS solution. […]

MDA = MDA content in lung tissue; settings: after drug treatment, compared with LPS group
Experimental: as §1, §2

LPS-induced ALI mice = assay: HE staining histopathology and alveolitis score of lung tissue; settings: for pathological scores of alveolitis: compared with DEX group (P<0.05)
Experimental: (§3) The dosage is converted according to the weight of the mice, and the gavage volume is 20 milliliters per kilogram (mL/kg), and the gavage is continued for 3 days. One hour after the gavage on the third day, the ALI model is established by tracheal instillation of LPS solution. […] After the mice are awake, they are raised as usual. 2.3 Treatment of Experimental Animals and Collection of Lung Tissue Specimens
Samples are collected 24 hours after the animal model is established. The mice are weighed and 12 mice in each group are sacrificed. Lung tissues are collected and the whole lung wet weight is measured. The lung tissues are packaged for hematoxylin and eosin (HE) staining, MDA and SOD content determination, gene and protein detection. The specific experimental procedures are as follows. • (1) 12 mice in each group are weighed and their necks are dislocated and sacrificed. • (2) The mice are fixed. The abdomen is wiped with 75% alcohol. The thoracic cavity is then opened, and the lung tissue is removed. After tidying, the lungs are photographed, excess tissues such as the trachea are cleared away, and the wet weight of the whole lung is measured to calculate the lung index. • (3) The upper lobe of the left lung is fixed in 4% neutral paraformaldehyde, fixed for 24 hours, paraffin-embedded and sectioned for HE staining. • (4) The remaining lung tissues are put into centrifugal tubes separately, quickly frozen in liquid nitrogen, and then stored at −80° C. after the experiment, which is used for the detection of MDA, SOD, western blotting (WB) and reverse transcription polymerase chain reaction (RT-PCR). 2.4 BALF Collection and Processing

Keap1 [4] = assay: Keap1 protein in lung tissue by WB
Experimental: as §3
Samples are collected 24 hours after the animal model is established. The mice are weighed and 12 mice in each group are sacrificed. Lung tissues are collected and the whole lung wet weight is measured. […] After tidying, the lungs are photographed, excess tissues such as the trachea are cleared away, and the wet weight of the whole lung is measured to calculate the lung index. • (3) The upper lobe of the left lung is fixed in 4% neutral paraformaldehyde, fixed for 24 hours, paraffin-embedded and sectioned for HE staining. • (4) The remaining lung tissues are put into centrifugal tubes separately, quickly frozen in liquid nitrogen, and then stored at −80° C. after the experiment, which is used for the detection of MDA, SOD, western blotting (WB) and reverse transcription polymerase chain reaction (RT-PCR). […]
The lung tissue is taken out from −80° C., and its weight is accurately measured. […]

NF-κB p65 = NF-κB p65 protein in lung tissue by WB
Experimental: as §1, §2

COC(=O)C1=CO[C@@H](OC)[C@@H]2C(COC(=O)c3cccc(Br)c3)=CC[C@H]12 [Gen-17, genipin beta-methyl derivative]
expression of Keap1 gene in lung tissue (Keap1 [1]; Gen-17 groups (12.5, 25, 50 mg/kg gavage) compared with DEX group (P<0.001)): significantly increased
expression of Keap1 gene in lung tissue (Keap1 [1]; Gen-17 groups (12.5, 25, 50 mg/kg gavage) compared with NS group): significantly increased (P<0.001)
mRNA expression of IL-1β in lung tissue (IL-1β [2]): significantly reduce the expression
mRNA expression of iNOS in lung tissue (iNOS): significantly reduce the expression
content of IL-1β in BALF (IL-1β [3]; Gen-17 groups (12.5, 25, 50 mg/kg gavage) compared with LPS group (P<0.05)): reduce the contents of inflammatory cytokines
IL-1β level in BALF (IL-1β [3]; low-dose Gen-17 12.5 mg/kg gavage, compared with DEX group (P<0.01)): statistically significant reduction
MDA content in the lung tissue homogenate (MDA): reduce the MDA content
pathological damage of lung tissue (HE staining) (LPS-induced ALI mice; Gen-17 groups (12.5, 25, 50 mg/kg gavage) compared with LPS group): significantly alleviate the pathological damage
pathological score of lung tissue (LPS-induced ALI mice; high-dose Gen-17 50 mg/kg gavage, compared with LPS group (P<0.01)): significantly reduced
pathological scores of alveolitis (LPS-induced ALI mice; low-dose Gen-17 12.5 mg/kg gavage): increased
pathological scores of alveolitis (LPS-induced ALI mice; medium-dose Gen-17 25 mg/kg gavage): increased
expression of Keap1 protein in lung tissue, overall result (Keap1 [4]; Gen-17 12.5, 25, 50 mg/kg gavage, ALI mice): downregulate the expression of Keap1 protein
expression of Keap1 protein in lung tissue (decrease) (Keap1 [4]; high-dose Gen-17 50 mg/kg gavage, compared with LPS group): statistically significant (P<0.001)
expression of NF-κB p65 protein in lung tissue (NF-κB p65; Gen-17 groups (12.5, 25, 50 mg/kg gavage) compared with NS group (P<0.001, P<0.05)): significantly increased
expression of NF-κB p65 protein in lung tissue (NF-κB p65; after drug treatment, compared with LPS group (P<0.05)): down-regulate the expression of NF-κB p65 protein
